The nature of data set [1]: in vivo. The settings on record: female, BALB/c. The method, then: All animal experiments were approved by the Institutional Animal Care and Use Committee of the New Jersey Medical School, Rutgers University, and were conducted in compliance with their guidelines. […] Sequential bleeds were collected at 0.25, 0.5, 1, 3, 5, and 8 h postdose via the tail snip method. Blood (50 µl) was collected in capillary microvette EDTA blood tubes and kept on ice prior to centrifugation at 1,500 × g for 5 min. The supernatant (plasma) was transferred into a 96-well plate and stored at −80°C.
Chromatography was performed with an Agilent Zorbax SB-C8 column (2.1 by 30 mm; particle size, 3.5 µm) using a reverse-phase gradient elution. A mixture of 0.1% formic acid–Milli-Q deionized water was used for the aqueous mobile phase and 0.1% formic acid–acetonitrile (ACN) for the organic mobile phase. […] Extracts were subjected to vortex mixing for 5 min and centrifuged at 4,000 rpm for 5 min. The supernatants were analyzed by LC-MS. Verapamil IS was sourced from Sigma-Aldrich.

For data set [2] the following is noted: mouse, microsomes.
The format of data set [3] is in vitro ADME. The text has this: (§1) Supplement mbo006184230st8.docx, table 1: Table S3. Profile of DG167 | column: value
Data set [4] deals with M. tuberculosis 100-day-old bacilli (persisters). The class given is cell-based, Mycobacterium tuberculosis.
The nature of data set [5]: in vitro. The settings on record: mouse, microsomes.
The nature of data set [6]: in vitro. The class given is in vitro ADME. As to conditions: for fraction unbound: plasma.
Excerpt: as §1

The nature of data set [7]: in vitro. The settings on record: human.
Data set [8] deals with M. marinum. As to the kind of experiment: MIC, MABA. The class given is cell-based. The settings on record: Mycobacterium marinum; M. marinum ATCC wild type.
Data set [9] concerns mycolic acid biosynthesis in M. tuberculosis H37Rv. It counts as cell-based, Mycobacterium tuberculosis.
The nature of data set [10]: in vitro. As to conditions: African green monkey.
The subject of data set [11] is M. fortuitum. As to the kind of experiment: MIC, MABA. It counts as cell-based. As to conditions: Mycolicibacterium fortuitum; M. fortuitum ATCC wild type.
Data set [12] concerns the target KasA (Mycobacterium tuberculosis, UniProt P9WQD9). As to the kind of experiment: Microscale thermophoresis (MST) binding assay. As to conditions: 49.5 nM labeled KasA.
Data set [13] can be described thus: in vitro. The settings on record: mouse. The class given is cell-based.
Excerpt: as §1

The nature of data set [14]: Chemical stability at pH 2, 7, 9. The settings on record: for half-life: buffer, read-out: Chemical stability t1/2. It counts as physicochemical.
Excerpt: as §1

Data set [15] has as its target CYP2C19 (Homo sapiens, UniProt P33261). As to the kind of experiment: Cytochrome P450 inhibition. The settings on record: read-out: Cytochrome P450 IC50, 2C19. It counts as in vitro ADME.
Data set [16] deals with M. tuberculosis H37Rv gene expression. It counts as cell-based, Mycobacterium tuberculosis.
Data set [17] has as its system M. avium. As to the kind of experiment: MIC, MABA. It counts as cell-based. The settings on record: Mycobacterium avium; M. avium ATCC wild type.
Data set [18] has as its system M. smegmatis. As to the kind of experiment: MIC, MABA. The class given is cell-based. The settings on record: Mycolicibacterium smegmatis; M. smegmatis wild-type.
For data set [19], the target named is hERG (Homo sapiens, UniProt Q12809). As to the kind of experiment: hERG inhibition.
Data set [20] can be described thus: physchem. The settings on record: pH 7.4, aqueous buffer, kinetic from dmso stock.
Data set [21] deals with iniBAC promoter (PiniBAC). It counts as cell-based, M. bovis BCG.
For data set [22], the target named is CYP2C9 (Homo sapiens, UniProt P11712). As to the kind of experiment: biochemical. It counts as in vitro ADME.
Excerpt: as §1

Data set [23] addresses CYP2D6 (Homo sapiens, UniProt P10635). As to the kind of experiment: biochemical. The class given is in vitro ADME.
Excerpt: as §1

In data set [24] the target is CYP3A4 (Homo sapiens, UniProt P08684). As to the kind of experiment: biochemical. It counts as in vitro ADME.
Excerpt: as §1

Data set [25] concerns the target CYP1A2 (Homo sapiens, UniProt P05177). As to the kind of experiment: biochemical. It counts as in vitro ADME.
Excerpt: as §1

Data set [26] has as its system M. abscessus. As to the kind of experiment: MIC, MABA. The class given is cell-based. The settings on record: Mycobacteroides abscessus; M. abscessus ATCC wild type.
Data set [27] deals with M. tuberculosis TDR692. As to the kind of experiment: microbe, parasite or virus in culture. It counts as cell-based. The settings on record: Mycobacterium tuberculosis.
The subject of data set [28] is M. tuberculosis 210. As to the kind of experiment: microbe, parasite or virus in culture. The class given is cell-based. The settings on record: Mycobacterium tuberculosis.
Data set [29] relates to M. bovis BCG. As to the kind of experiment: microbe, parasite or virus in culture. It counts as cell-based. As to conditions: Mycobacterium tuberculosis variant bovis BCG.
Data set [30] has as its system M. tuberculosis H37Rv. As to the kind of experiment: microbe, parasite or virus in culture. It counts as cell-based, Mycobacterium tuberculosis.
Data set [31] can be described thus: Mouse liver microsomal (MLM) stability. As to conditions: for half-life: mouse, liver microsomes. For orientation: Liver microsomes are vesicles of endoplasmic reticulum, rich in cytochrome P450 enzymes.
Data set [32] has as its system M. tuberculosis. The settings on record: cited from earlier work.
Assay in data set [33]: not given
This is another data set of the same source.

The mark [34] stands for this setting: MLM stability t1/2 without NADPH, without NADPH.
Setting [35] is: Mycobacterium tuberculosis, H37RV.

Converted amounts (≈) assume the structure as drawn. “And” between values parts separate entries of the source, which are not always exact repeats. Equal entries are not always repeated. Where two headings read alike, the source gives them in different places.

KasA, sequence (P9WQD9 whole entry): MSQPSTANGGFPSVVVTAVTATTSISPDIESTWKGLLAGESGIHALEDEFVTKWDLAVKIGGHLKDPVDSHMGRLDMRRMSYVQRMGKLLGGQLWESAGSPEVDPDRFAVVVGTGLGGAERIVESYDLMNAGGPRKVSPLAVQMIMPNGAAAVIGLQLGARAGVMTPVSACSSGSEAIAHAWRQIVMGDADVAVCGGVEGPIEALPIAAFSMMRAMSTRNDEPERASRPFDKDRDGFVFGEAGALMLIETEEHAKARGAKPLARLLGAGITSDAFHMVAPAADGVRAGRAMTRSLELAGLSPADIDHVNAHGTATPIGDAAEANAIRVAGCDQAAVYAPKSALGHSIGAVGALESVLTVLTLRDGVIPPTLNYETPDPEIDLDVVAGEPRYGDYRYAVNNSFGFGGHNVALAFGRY
CYP2C19, sequence (P33261 whole entry, species assumed): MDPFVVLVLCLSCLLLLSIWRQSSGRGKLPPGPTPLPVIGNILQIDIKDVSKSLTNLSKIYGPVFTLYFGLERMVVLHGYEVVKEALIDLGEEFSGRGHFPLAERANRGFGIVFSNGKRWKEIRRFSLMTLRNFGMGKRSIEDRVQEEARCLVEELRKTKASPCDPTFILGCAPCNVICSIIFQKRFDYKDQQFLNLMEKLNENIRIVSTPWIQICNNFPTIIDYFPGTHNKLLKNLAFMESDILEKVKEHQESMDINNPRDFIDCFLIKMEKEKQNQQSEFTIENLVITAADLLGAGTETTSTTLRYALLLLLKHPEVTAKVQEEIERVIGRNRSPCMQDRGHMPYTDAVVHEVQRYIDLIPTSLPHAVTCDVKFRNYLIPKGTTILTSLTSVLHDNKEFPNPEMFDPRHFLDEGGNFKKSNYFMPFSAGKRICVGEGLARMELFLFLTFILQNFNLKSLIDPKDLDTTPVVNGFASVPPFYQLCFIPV
CYP1A2, sequence (P05177 whole entry): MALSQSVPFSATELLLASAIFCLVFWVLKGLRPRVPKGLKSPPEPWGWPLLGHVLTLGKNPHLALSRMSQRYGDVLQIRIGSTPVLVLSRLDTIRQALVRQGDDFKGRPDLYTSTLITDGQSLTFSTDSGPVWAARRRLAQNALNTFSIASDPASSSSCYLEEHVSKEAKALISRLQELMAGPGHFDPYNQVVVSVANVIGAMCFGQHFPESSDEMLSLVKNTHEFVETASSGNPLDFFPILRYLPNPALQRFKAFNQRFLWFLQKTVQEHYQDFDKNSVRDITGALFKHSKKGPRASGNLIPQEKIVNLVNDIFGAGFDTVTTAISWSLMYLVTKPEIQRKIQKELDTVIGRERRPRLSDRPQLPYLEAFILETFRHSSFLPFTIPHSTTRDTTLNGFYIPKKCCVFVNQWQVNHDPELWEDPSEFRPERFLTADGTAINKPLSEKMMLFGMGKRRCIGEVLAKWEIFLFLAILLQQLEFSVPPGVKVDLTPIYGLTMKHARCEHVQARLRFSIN
CYP2C9, sequence (P11712 whole entry): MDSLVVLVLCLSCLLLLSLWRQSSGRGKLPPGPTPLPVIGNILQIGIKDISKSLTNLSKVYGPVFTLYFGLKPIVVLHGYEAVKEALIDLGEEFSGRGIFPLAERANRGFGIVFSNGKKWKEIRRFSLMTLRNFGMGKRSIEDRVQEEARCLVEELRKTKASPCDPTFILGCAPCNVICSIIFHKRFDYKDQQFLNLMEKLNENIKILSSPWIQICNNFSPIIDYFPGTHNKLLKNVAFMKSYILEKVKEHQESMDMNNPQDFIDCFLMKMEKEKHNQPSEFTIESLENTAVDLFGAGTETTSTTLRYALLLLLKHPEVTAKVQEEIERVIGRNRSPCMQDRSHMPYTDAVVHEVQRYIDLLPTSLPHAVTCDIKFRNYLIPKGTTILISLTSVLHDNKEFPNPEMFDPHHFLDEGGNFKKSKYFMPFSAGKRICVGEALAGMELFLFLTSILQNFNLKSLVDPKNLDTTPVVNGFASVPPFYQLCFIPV
hERG, sequence (Q12809 whole entry): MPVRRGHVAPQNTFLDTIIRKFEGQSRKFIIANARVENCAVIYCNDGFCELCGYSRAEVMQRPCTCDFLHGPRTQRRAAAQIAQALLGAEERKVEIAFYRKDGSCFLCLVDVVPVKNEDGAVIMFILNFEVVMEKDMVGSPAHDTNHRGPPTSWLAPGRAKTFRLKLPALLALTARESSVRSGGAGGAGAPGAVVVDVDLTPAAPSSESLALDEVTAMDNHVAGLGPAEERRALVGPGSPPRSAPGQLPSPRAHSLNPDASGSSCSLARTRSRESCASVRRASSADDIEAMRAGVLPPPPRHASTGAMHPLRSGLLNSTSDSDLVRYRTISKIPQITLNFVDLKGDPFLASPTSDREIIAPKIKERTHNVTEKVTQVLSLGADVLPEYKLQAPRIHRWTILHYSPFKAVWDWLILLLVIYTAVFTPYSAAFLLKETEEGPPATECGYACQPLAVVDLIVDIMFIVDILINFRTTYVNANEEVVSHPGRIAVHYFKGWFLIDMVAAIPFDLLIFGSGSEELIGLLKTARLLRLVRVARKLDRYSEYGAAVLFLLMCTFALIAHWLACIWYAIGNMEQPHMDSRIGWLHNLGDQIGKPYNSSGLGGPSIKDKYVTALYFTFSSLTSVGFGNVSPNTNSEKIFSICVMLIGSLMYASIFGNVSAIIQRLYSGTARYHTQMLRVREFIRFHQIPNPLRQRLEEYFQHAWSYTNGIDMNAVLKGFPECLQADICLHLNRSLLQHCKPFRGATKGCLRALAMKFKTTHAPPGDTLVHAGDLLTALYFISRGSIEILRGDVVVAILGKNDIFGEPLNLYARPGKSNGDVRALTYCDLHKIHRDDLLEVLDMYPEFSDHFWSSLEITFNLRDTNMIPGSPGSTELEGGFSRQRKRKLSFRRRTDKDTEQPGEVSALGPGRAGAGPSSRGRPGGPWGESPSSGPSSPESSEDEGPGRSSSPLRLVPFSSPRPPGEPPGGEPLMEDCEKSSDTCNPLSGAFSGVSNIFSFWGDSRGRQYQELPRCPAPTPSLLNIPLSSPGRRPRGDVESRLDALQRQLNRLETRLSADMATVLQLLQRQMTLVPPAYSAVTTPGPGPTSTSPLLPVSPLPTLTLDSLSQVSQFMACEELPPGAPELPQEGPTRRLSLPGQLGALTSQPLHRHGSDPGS
CYP3A4, sequence (P08684 whole entry): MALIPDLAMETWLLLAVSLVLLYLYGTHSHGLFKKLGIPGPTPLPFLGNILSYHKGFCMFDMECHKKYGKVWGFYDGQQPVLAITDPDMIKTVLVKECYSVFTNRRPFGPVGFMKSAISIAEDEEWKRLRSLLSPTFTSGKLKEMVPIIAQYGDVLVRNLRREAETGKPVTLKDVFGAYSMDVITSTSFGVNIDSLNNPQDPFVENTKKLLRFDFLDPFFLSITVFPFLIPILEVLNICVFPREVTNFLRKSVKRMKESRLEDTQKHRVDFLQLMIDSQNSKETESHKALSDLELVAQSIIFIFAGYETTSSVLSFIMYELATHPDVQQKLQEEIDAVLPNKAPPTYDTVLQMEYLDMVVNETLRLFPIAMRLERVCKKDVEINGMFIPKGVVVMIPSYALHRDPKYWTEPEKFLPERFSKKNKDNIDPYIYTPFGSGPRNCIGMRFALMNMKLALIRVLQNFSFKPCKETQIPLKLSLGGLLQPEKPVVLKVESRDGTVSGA
CYP2D6, sequence (P10635 whole entry): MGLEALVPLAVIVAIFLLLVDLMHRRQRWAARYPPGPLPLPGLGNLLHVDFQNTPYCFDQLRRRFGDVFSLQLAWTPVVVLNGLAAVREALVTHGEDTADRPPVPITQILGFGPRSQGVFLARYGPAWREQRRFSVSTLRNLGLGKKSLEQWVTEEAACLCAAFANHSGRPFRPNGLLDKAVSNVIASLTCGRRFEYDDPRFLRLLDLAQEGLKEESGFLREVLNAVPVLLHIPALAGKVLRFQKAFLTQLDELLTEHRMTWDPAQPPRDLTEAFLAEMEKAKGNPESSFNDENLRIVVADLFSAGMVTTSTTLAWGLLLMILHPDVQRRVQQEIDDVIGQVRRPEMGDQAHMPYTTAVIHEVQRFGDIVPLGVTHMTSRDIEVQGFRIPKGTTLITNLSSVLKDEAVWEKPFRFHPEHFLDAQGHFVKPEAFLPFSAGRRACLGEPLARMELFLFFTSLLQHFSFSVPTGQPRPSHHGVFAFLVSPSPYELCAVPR

By AUC(0-t) is commonly meant the area under the concentration-time curve up to a stated or last time point. Broadly, the bioavailability is the share of a dose that reaches the circulation, judged against a reference dose that is usually intravenous. As a reminder, the microsomal CLint is a measure of how fast metabolising enzymes remove a compound, apart from limits set by blood flow. Broadly, the fraction unbound is the share of the substance not bound to proteins or other matrix. As a reminder, the Papp is the rate of passage across a membrane or cell layer, normalised by area and donor concentration. What is called EC50 is the concentration that produces a half-maximal response. The IC50 is the midpoint of a concentration-inhibition curve. A word on the solubility (kinetic): it is the concentration staying in solution when a stock, usually in DMSO, is diluted into the medium. Take `CCCCS(=O)(=O)Nc1ccc2cnn(C)c2c1` [DG167, N-(1-Methyl-1H-indazol-6-yl)butane-1-sulfonamide]: the AUC(0-t) in data set [1] (mouse, in vivo, iv, 5 mg/kg) turned out to be 1750 ng·h/mL; in data set [1] (mouse, in vivo, po, 25 mg/kg), 8080 ng·h/mL. Also, the half-life in data set [1] (mouse, in vivo, iv, 5 mg/kg) is 19.8 min; in data set [5], 10.1 min; in data set [5] (setting [34]) it was above 300 min; in data set [14] (pH 2), 192 h; in data set [14] (pH 9), 57.8 h. Also, the bioavailability in data set [1] (plasma, po, 25 mg/kg) amounted to 92.3%. The compound further gave an MLM stability clint in data set [2] of 68.9 μl/mi/mg protein. For the same compound, the MLM-generated metabolites result in data set [2] is recorded as “A demethylated species, corresponding to loss of the 1-methyl group (Fig. S5A), predominated among the metabolites”. The “Human plasma stability at 5 h” value in data set [3] is listed as 109%. In data set [3], the “Mouse plasma stability @ 5 h” value is on record as 99.1%. In addition, in data set [4], the “killing of persister cultures” value was “minimal killing”. This compound showed an intrinsic clearance (microsomal CLint) in data set [5] of 68.9 µL/min/mg. For the same compound, the recovery in [6] (human) is 92%; in data set [6] (mouse), 90.7%. Besides, the fraction unbound was 0.081 in data set [6] (human) and 0.21 in data set [6] (mouse). Moreover, the apparent permeability (Papp) in data set [7] (Caco-2, Caco-2 Permeability PA-B) stood at 71.8 ×10⁻⁶ cm/s; in [7] (Caco-2, Caco-2 Permeability PB-A), 45.6 ×10⁻⁶ cm/s. The MIC in [8], in data set [11], in data set [17], in [18] and in data set [26] was above 50 µM each time. Moreover, the “tolerability, dose escalation” value runs as follows: (mice, 50 and 100 mg/kg, monitored for 8 h) “well tolerated”; (mouse, in vivo) “heavy breathing, hunched posture, and decreased activity”. Moreover, the “dose tolerability for 5 days” value (mice, 5 days, DG167 50 and 100 mg/kg, combination DG167 100 mg/kg with INH 25 mg/kg) was “did not show any behavioral changes or weight loss”. Moreover, in data set [9], the “inhibition of mycolic acid biosynthesis” value is “dose-dependent inhibition”. In addition, the CC50 in data set [10] was found to be 23 µM; in data set [13] it was 94 µM. This compound gave an EC50 in data set [12] of 0.131 ± 0.0182 µM. In data set [14] (pH 7), the “Chemical stability t1/2” value is reported as “Stable”. Moreover, the IC50 is 12 µM and 12.4 µM in data set [15]; above 20 µM in [19]; above 50 µM in data set [22]; above 50 µM in [23]; above 50 µM in data set [24]; above 50 µM in [25]. In addition, the “expression of the kasA, kasB, and acpM genes and the iniBAC operon” value in data set [16] was “strongly induced expression”. In data set [20], this compound showed a solubility (kinetic) of 324 µM (≈ 86.6 µg/mL). The “induction of iniBAC promoter” value in data set [21] is on record as “approximately 12 fold”.
In [27], `NNC(=O)c1ccncc1` [INH, isoniazid] showed an MIC of 0.2 µM (≈ 0.0274 µg/mL). In [4], the “killing of persister cultures” value is listed as “minimal killing”. In [8], this compound had an MIC above 12 µM. Besides, in [11], the MIC was above 12 µM. For the same compound, in data set [28], the MIC was 0.4 µM (≈ 0.0549 µg/mL). In data set [16], the “Fold change, Rv0885” value is recorded as 2.044 fold; the “Fold change, Rv2706c” value amounted to 2.3 fold; the “Fold change, Rv3269” value is -2.076 fold; the “Fold change, Rv3352c” value is 2.131 fold. In [16], the “Fold change, ctpD” value is recorded as 2.334 fold; the “Fold change, cysA3” value is recorded as -2.027 fold; the “Fold change, fadD5” value is on record as -2.2153 fold; the “Fold change, fadD11” value is on record as -2.252 fold. In data set [16], the “Fold change, lprQ” value is 2.051 fold; the “Fold change, sapM” value was 2.01 fold; the “expression of the kasA, kasB, and acpM genes and the iniBAC operon” value is recorded as “strongly induced expression”. The same compound gave an MIC in [17] above 12 µM. In [18], this compound returned an MIC above 12 µM. The MIC in [29] worked out at 0.4 µM (≈ 0.0549 µg/mL). This compound had an MIC in data set [26] above 12 µM.
Regarding `CCCCS(=O)(=O)Nc1ccc2cnn(CC)c2c1` [5a-3, N-(1-Ethyl-1H-indazol-6-yl)butane-1-sulfonamide], in data set [30] (setting [35]), the MIC was found to be 6.2 µM (≈ 1.74 µg/mL). In addition, the MLM stability clint in data set [2] turned out to be 536 μl/mi/mg protein. For the same compound, the half-life in data set [5] (MLM stability t1/2) is 1.29 min; in data set [5] (MLM stability t1/2 without NADPH) it was above 3060 min. Further, the CC50 in data set [10] was determined as 44.4 µM. Besides, the solubility (kinetic) in [20] was found to be 472 µM (≈ 133 µg/mL).
In the case of `CCCCS(=O)(=O)Nc1ccc2cn[nH]c2c1` [5a-2, N-(1H-Indazol-6-yl)butane-1-sulfonamide], the MIC in data set [30] and in data set [30] (setting [35]) was above 100 µM throughout. In data set [2], this compound gave an MLM stability clint of 68.7 μl/mi/mg protein. Further, in data set [9], the “inhibition of mycolic acid biosynthesis” value was “did not show any inhibition”. In data set [12], this compound displayed an EC50 of 1.74 µM. The half-life in data set [31] (MLM stability t1/2, with NADPH) is 12.2 min; in data set [31] (setting [34]), above 3060 min. The compound also yielded a solubility (kinetic) in [20] above 600 µM.
With `C=C/C(C)=C/[C@@]1(C)SC(=O)C(C)=C1O` [thiolactomycin], in data set [32], the “whole-cell activity in M. tuberculosis” value was 142 µM.
For `CC12C[C@@]34C=CC(=O)[C@@](C)(CCC(=O)Nc5c(O)ccc(C(=O)O)c5O)C3[C@H](CC1C4)O2` (stereo partly drawn) [platensimycin], in [32], the “whole-cell activity in M. tuberculosis” value is listed as 27 µM.
Take “1-Methyl-N-pentyl-1H-indazol-6-amine [5f]”: the MIC in data set [30] was above 100 µM. In addition, the “Kinetic solubility in pH 7.4 PBS” value in data set [33] is given as above 500 µM. Further, the MLM stability clint in data set [31] (Table 3) came to 56.7 μl/mi/mg protein. In addition, the “MLM stability t1/2” value in [31] (with NADPH) was determined as 12.2 min. In data set [31] (without NADPH), the “MLM stability t1/2 without NADPH” value is reported as > 3,060 min.
In general, Kd refers to the equilibrium constant for the complex coming apart. Take `CCCCS(=O)(=O)Nc1ccc2[nH]nc(C)c2c1` [5g, N-(3-Methyl-1H-indazol-5-yl)butane-1-sulfonamide]: the “improvement in MIC/whole-cell activity over DG167” value in [30] worked out at 2 fold. The compound also came in with an MIC in data set [30] (setting [35]) of 0.2 µM (≈ 0.0535 µg/mL). The MLM stability clint in data set [2] is reported as 60.3 μl/mi/mg protein. Further, the CC50 in [10] came out at 94 µM. In [12], the Kd came out at 0.0465 ± 0.0187 µM. Also, the half-life in data set [31] (MLM stability t1/2, with NADPH) stood at 11.5 min; in [31] (setting [34]), 141 min.

Values taken from paper PMC6299220 (mBio, 2018).
